{"source": "patent US11654140B2", "about": "“Treatment of ocular inflammatory diseases using laquinimod” (Active Biotech AB, priority 2012, dated 2023)", "key": {"[1]": {"system": "ovalbumin-induced allergic conjunctivitis (late phase reaction) in mice", "assay": "Ocular active anaphylaxis (late phase) in mice, ovalbumin model, eosinophil infiltration into conjunctiva (Example 2)", "type": "in vivo", "settings": "for Eosinophil density, mean / Inhibition of Eosinophil Infiltration vs. Vehicle: 10 μl topical right eye four times daily Day 8-17, five times Day 18; for Eosinophil density, mean: conjunctiva Day 19", "experimental": "Laquinimod solutions were prepared as in Example 1.\nForty (40) Balb/c albino mice were randomly allocated to five groups of eight animals each. Only the right eyes of each animal were used in this study.\nOn Days 1 and 8, animals in groups 2-5 were injected once intraperitoneally with 0.2 ml of a mixture comprising 5 μg/ml ovalbumin and 15 mg/ml alum in phosphate buffered saline (PBS; pH 7.3-7.4). Animals of group 1 received a mock sensitization comprising 0.2 ml intraperitoneal injection of PBS only on Days 1 and 8.\nLaquinimod or controls were delivered into the right conjunctival sac as follows: • From Day 8 to Day 17, animals were dosed four times daily with 10 μl of either 1% laquinimod, 5% laquinimod, or vehicle. Reference Group 5 was dosed with the same regimen, but starting on Day 15. (**Note: Due to a technical error, four mice from Group 1 (negative vehicle) were not dosed on Day 8 and one mouse from Group 1 (negative vehicle) was not dosed on Day 11. This was deemed not to be a critical error that would affect the outcome of the study so the study was continued). • On Day 18, animals were dosed five times during a three hour period before the second challenge (3 h, 2 h, 1 h, 40 min., and 10 min.).\nAllergic conjunctivitis was achieved by a single administration on Day 15 (30 minutes before the treatment regimen) and Day 18 (2 hours after 40 minute treatment) with 10 μl of 5 mg/ml ovalbumin in PBS, pH 7.3-7.4 to the right eyes of all […] in groups 2 through 5. Group 1 was mock challenged with 10 μl PBS only.\nOn Day 19 (12 h to 24 h after challenge), […] were euthanized using an intraperitoneal injection of pentobarbital. Right eyelids and eyeballs were immediately fixed in Bouin-Hollande solution for 24 hours and embedded in paraffin wax. Fixed samples were cut vertically into 5 to 7 micrometer thick sections with a microtome in two different regions—the bulbar conjunctiva and the fornix and palpebral conjunctiva. Three sections per region were selected for analysis based on the quality of the sectioning. The selected sections were stained with May-Grunwald/acid Giemsa.\nAfter staining, digital images using 200× magnifications were taken with a Leica light microscope. Total area of subconjunctival tissue was measured automatically using the Leica Application Suite (LAS) software. Eosinophils were counted throughout the whole conjunctiva in each of the three sections per sample. The density per square millimeter of eosinophils stained with acid Giemsa was calculated for each specimen. The average cell density per eye was calculated from the results of the […] sections."}, "[2]": {"assay": "Animal body weight and adverse clinical effects, ovalbumin study (Example 2)", "type": "in vivo", "settings": "laquinimod-treated mice, multiple topical administrations", "excerpt": "This weight loss is commonly observed during chronic corticosteroid treatments."}, "[3]": {"system": "S-antigen-induced uveitis in albino rats", "assay": "Ocular vs oral laquinimod in S-antigen-induced uveitis in albino rats, clinical score (Example 10)", "type": "in vivo, rat", "settings": "once daily, 7 days"}, "[4]": {"system": "S-antigen-induced uveitis in albino rats", "assay": "Ocular vs oral laquinimod in S-antigen-induced uveitis in albino rats, histological analysis (Example 10)", "type": "in vivo, rat", "settings": "for Histological ocular evaluation, % Inhibition: Day 19"}, "[5]": {"system": "subject suffering from uveitis", "assay": "Laquinimod for treating uveitis (Example 4)", "type": "in vivo", "settings": "laquinimod composition administered to the eye, once daily", "experimental": "In the examples 4-9 below, the administration of the composition is once daily. The administration can be repeated daily for a period of one, two, three or four days, up to 14 days, or longer as necessary. A laquinimod composition as described herein is administered to the eye of a subject suffering from uveitis. The administration of the composition is effective to treat the subject suffering from uveitis. The administration of the composition is also effective to reduce intraocular inflammation in the subject. The administration of the composition is also effective to reduce retina tissue destruction in the subject."}, "[6]": {"system": "subject suffering from bacterial conjunctivitis", "assay": "Laquinimod for treating bacterial conjunctivitis (Example 5)", "type": "in vivo", "settings": "laquinimod composition, once daily", "experimental": "(§1) In the examples 4-9 below, the administration of the composition is once daily. The administration can be repeated daily for a period of one, two, three or four days, up to 14 days, or longer as necessary.\n(§2) A laquinimod composition as described herein is administered to a subject suffering from bacterial conjunctivitis. The administration of the composition is effective to treat the subject suffering from bacterial conjunctivitis. The administration of the composition is also effective to reduce intraocular inflammation in the subject."}, "[7]": {"system": "subject suffering from viral conjunctivitis", "assay": "Laquinimod for treating viral conjunctivitis (Example 6)", "type": "in vivo", "settings": "laquinimod composition, once daily", "experimental": "as §1\nas §2, with “viral” for “bacterial”"}, "[8]": {"system": "subject suffering from an inflammation of the orbital tissue, the lacrimal apparatus, the eyelid, the cornea, the retina or the optic pathway", "assay": "Laquinimod for treating inflammation in the eye (Example 7)", "type": "in vivo", "settings": "laquinimod composition, once daily", "experimental": "as §1\nA laquinimod composition as described herein is administered to a subject suffering from an inflammation of the orbital tissue, the lacrimal apparatus, the eyelid, the cornea, the retina or the optic pathway in the eye. The administration of the composition is effective to treat the subject suffering from the inflammation. The administration of the composition is also effective to reduce intraocular inflammation in the subject."}, "[9]": {"system": "subject suffering from an OID", "assay": "Laquinimod for treating OID (Example 9)", "type": "in vivo", "settings": "laquinimod composition, once daily", "experimental": "as §1\nA laquinimod composition as described herein is administered to a subject suffering from an OID. The administration of the composition is effective to treat the subject suffering from the OID. The administration of the composition is also effective to reduce intraocular inflammation in the subject."}, "[10]": {"settings": "1%, 1× 10 μl instillation/day for 7 days in both eyes"}, "[11]": {"settings": "1%, 1×/day for 7 days, 1 mL/kg, per os"}, "[12]": {"settings": "5%, 1× 10 μl instillation/day for 7 days in both eyes"}, "[13]": {"settings": "5%, 1×/day for 7 days, 1 mL/kg, per os"}}}
{"smiles": "CCN(C(=O)c1c(O)c2c(Cl)cccc2n(C)c1=O)c1ccccc1", "note": "[Laquinimod, laquinimod]", "values": [{"measurement": "Eosinophil density, mean", "setting": "[1]; 1% Laquinimod", "value": 117.5, "unit": "cells/mm2"}, {"measurement": "Inhibition of Eosinophil Infiltration vs. Vehicle", "setting": "[1]; 1% Laquinimod, not statistically significant", "value": 48, "unit": "%"}, {"measurement": "Inhibition of Eosinophil Infiltration vs. Vehicle", "setting": "[1]; 1% Laquinimod, not statistically significant, listed as laquinimod", "value": 48, "unit": "%"}, {"measurement": "Eosinophil density, mean", "setting": "[1]; 5% Laquinimod", "value": 72.5, "unit": "cells/mm2"}, {"measurement": "Inhibition of Eosinophil Infiltration vs. Vehicle", "setting": "[1]; 5% Laquinimod, p 0.0023", "value": 68, "unit": "%"}, {"measurement": "Inhibition of Eosinophil Infiltration vs. Vehicle", "setting": "[1]; 5% Laquinimod, p 0.0023, listed as laquinimod", "value": 68, "unit": "%"}, {"measurement": "late ocular anaphylaxis reaction", "setting": "[1]; multiple topical administrations, statistically significant effect at a dose of 5%", "value": "inhibited the late ocular anaphylaxis reaction"}, {"measurement": "adverse clinical effect", "setting": "[2]", "value": "No adverse clinical effect was observed"}, {"measurement": "% Inhibition of clinical score on Day 16", "setting": "[3]; 1% PO", "value": 24, "unit": "%"}, {"measurement": "% Inhibition of clinical score on Day 16", "setting": "[3]; 1% eye drops", "value": "−75", "unit": "%"}, {"measurement": "% Inhibition of clinical score on Day 16", "setting": "[3]; 5% PO", "value": 39, "unit": "%"}, {"measurement": "% Inhibition of clinical score on Day 16", "setting": "[3]; 5% eye drops", "value": 31, "unit": "%"}, {"measurement": "Histological ocular evaluation (scale 0-7) Both Eyes/Day 19, mean", "setting": "[4]; [10]", "value": 2.8}, {"measurement": "Histological ocular evaluation, % Inhibition", "setting": "[4]; [10]", "value": 7.00, "unit": "%"}, {"measurement": "Histological ocular evaluation (scale 0-7) Both Eyes/Day 19, mean", "setting": "[4]; [11]", "value": 2.3}, {"measurement": "Histological ocular evaluation, % Inhibition", "setting": "[4]; [11]", "value": 23.00, "unit": "%"}, {"measurement": "Histological ocular evaluation (scale 0-7) Both Eyes/Day 19, mean", "setting": "[4]; [12]", "value": 1.8}, {"measurement": "Histological ocular evaluation, % Inhibition", "setting": "[4]; [12]", "value": 40.00, "unit": "%"}, {"measurement": "Histological ocular evaluation (scale 0-7) Both Eyes/Day 19, mean", "setting": "[4]; [13]", "value": 1.2}, {"measurement": "Histological ocular evaluation, % Inhibition", "setting": "[4]; [13]", "value": 60.00, "unit": "%"}, {"measurement": "treat the subject suffering from uveitis", "setting": "[5]", "value": "effective"}, {"measurement": "reduce intraocular inflammation in the subject", "setting": "[5]; uveitis", "value": "effective"}, {"measurement": "reduce retina tissue destruction in the subject", "setting": "[5]; uveitis", "value": "effective"}, {"measurement": "treat the subject suffering from bacterial conjunctivitis", "setting": "[6]", "value": "effective"}, {"measurement": "reduce intraocular inflammation in the subject", "setting": "[6]; bacterial conjunctivitis", "value": "effective"}, {"measurement": "treat the subject suffering from viral conjunctivitis", "setting": "[7]", "value": "effective"}, {"measurement": "reduce intraocular inflammation in the subject", "setting": "[7]; viral conjunctivitis", "value": "effective"}, {"measurement": "reduce intraocular inflammation in the subject", "setting": "[8]; inflammation in the eye", "value": "effective"}, {"measurement": "treat the subject suffering from the inflammation", "setting": "[8]; inflammation of orbital tissue, lacrimal apparatus, eyelid, cornea, retina or optic pathway", "value": "effective"}, {"measurement": "treat the subject suffering from the OID", "setting": "[9]", "value": "effective"}, {"measurement": "reduce intraocular inflammation in the subject", "setting": "[9]; OID", "value": "effective"}]}
